Reference: PubChem BioAssay AID248 (DTP/NCI, 2004)
Several values for one entry are separate records, joined by “and”; a condition that tells them apart may be missing. Equal entries are not always repeated. Toxic doses and inconclusive results are not listed. Cut-off read from the data, not from the text of the source: active = T/C of 150% or more; inactive = T/C below 125%.

Tested on: L1210 leukemia ip in BDF1 mice, survival T/C
Test: NCI In Vivo Anticancer Drug Screen. Data for tumor model L1210 Leukemia (intraperitoneal) in B6D2F1 (BDF1) mice
Conditions: endpoint: mean survival time, higher = longer survival
In short: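 Survival endpoint. Drug-treated group vs vehicle group, expressed as T divided by C. Tumor passaged by transplantation.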

[1] = dose: 50.0 mg/kg/injection, schedule: Q01DX009 (ip), vehicle: saline
[2] = dose: 100.0 mg/kg/injection, schedule: Q01DX009 (ip), vehicle: saline
[3] = dose: 200.0 mg/kg/injection, schedule: Q01DX009 (ip), vehicle: saline
[4] = dose: 100.0 mg/kg/injection, schedule: Q04DX003 (ip), vehicle: saline
[5] = dose: 200.0 mg/kg/injection, schedule: Q04DX003 (ip), vehicle: saline
[6] = dose: 400.0 mg/kg/injection, schedule: Q01DX009 (ip), vehicle: saline
[7] = dose: 400.0 mg/kg/injection, schedule: Q04DX003 (ip), vehicle: saline
[8] = dose: 100.0 mg/kg/injection, schedule: Q01DX001 (ip), vehicle: saline
[9] = dose: 200.0 mg/kg/injection, schedule: Q01DX001 (ip), vehicle: saline
[10] = dose: 400.0 mg/kg/injection, schedule: Q01DX001 (ip), vehicle: saline
[11] = dose: 100.0 mg/kg/injection, schedule: Q01DX009 (ip), vehicle: Klucel (hydroxypropylcellulose) (HPC)
[12] = dose: 100.0 mg/kg/injection, schedule: Q04DX003 (ip), vehicle: Klucel (hydroxypropylcellulose) (HPC)
[13] = dose: 200.0 mg/kg/injection, schedule: Q04DX003 (ip), vehicle: Klucel (hydroxypropylcellulose) (HPC)
[14] = dose: 150.0 mg/kg/injection, schedule: Q01DX009 (ip), vehicle: saline
[15] = dose: 100.0 mg/kg/injection, schedule: Q01DX001 (ip), vehicle: carboxymethylcellulose (CMC)
[16] = dose: 200.0 mg/kg/injection, schedule: Q01DX001 (ip), vehicle: carboxymethylcellulose (CMC)
[17] = dose: 400.0 mg/kg/injection, schedule: Q01DX001 (ip), vehicle: carboxymethylcellulose (CMC)
[18] = dose: 400.0 mg/kg/injection, schedule: Q04DX003 (ip), vehicle: Klucel (hydroxypropylcellulose) (HPC)
[19] = dose: 100.0 mg/kg/injection, schedule: Q04DX002 (ip), vehicle: Klucel (hydroxypropylcellulose) (HPC)

Measured: T/C

CCN(CC)CCCOC(=O)c1ccccc1
inactive: [1] 96 % of control | [2] 100 % of control | [3] 100 % of control

COC(=O)c1ccc(SCCCN2CCOCC2)cc1
inactive: [2] 97 % of control | [4] 109 % of control | [3] 96 % of control | [5] 96 % of control | [6] 102 % of control | [7] 100 % of control

O=C1C=CC(CCCCCn2ccc(=O)[nH]c2=O)C(=O)N1 (stereo unspecified)
inactive: [4] 105 % of control | [5] 96 % of control | [7] 97 % of control

COC(=O)C1CN(C)CCC1=O (stereo unspecified)
inactive: [8] 97 % of control | [9] 106 % of control | [10] 95 % of control

C=CCOCC(O)CN(CCC(C)C)CCC(C)C (stereo unspecified)
inactive: dose: 25.0 mg/kg/injection, schedule: Q01DX009 (ip), vehicle: Klucel (hydroxypropylcellulose) (HPC) 95 % of control | dose: 50.0 mg/kg/injection, schedule: Q01DX009 (ip), vehicle: Klucel (hydroxypropylcellulose) (HPC) 97 % of control | [11] 96 % of control and 100 % of control | [12] 102 % of control | [13] 91 % of control

CC(/C=N/N=C(\N)N(C)C)=N\N=C(/N)N(C)C
inactive: dose: 95.0 mg/kg/injection, schedule: Q01DX Z (oral), vehicle: carboxymethylcellulose (CMC) 104 % of control | dose: 190.0 mg/kg/injection, schedule: Q01DX Z (oral), vehicle: carboxymethylcellulose (CMC) 110 % of control | dose: 240.0 mg/kg/injection, schedule: Q01DX Z (ip), vehicle: carboxymethylcellulose (CMC) 96 % of control | dose: 380.0 mg/kg/injection, schedule: Q01DX Z (oral), vehicle: carboxymethylcellulose (CMC) 106 % of control | dose: 760.0 mg/kg/injection, schedule: Q01DX Z (oral), vehicle: carboxymethylcellulose (CMC) 112 % of control

Cc1cccc(C[P+](C/C=C/c2ccccc2)(c2ccccc2)c2ccccc2)c1
inactive: dose: 6.25 mg/kg/injection, schedule: Q04DX003 (ip), vehicle: Klucel (hydroxypropylcellulose) (HPC) 92 % of control | dose: 12.5 mg/kg/injection, schedule: Q04DX003 (ip), vehicle: Klucel (hydroxypropylcellulose) (HPC) 92 % of control

Oc1ccc2ccccc2c1CN1CCCCC1
inactive: dose: 75.0 mg/kg/injection, schedule: Q01DX009 (ip), vehicle: saline 92 % of control | [4] 90 % of control | [14] 95 % of control | [5] 101 % of control | dose: 300.0 mg/kg/injection, schedule: Q01DX009 (ip), vehicle: saline 89 % of control | [7] 106 % of control

C1CC[N+]2=C(C1)OCCC2
inactive: dose: 30.0 mg/kg/injection, schedule: Q01DX009 (ip), vehicle: saline 93 % of control | dose: 44.0 mg/kg/injection, schedule: Q01DX009 (ip), vehicle: saline 100 % of control | dose: 60.0 mg/kg/injection, schedule: Q01DX009 (ip), vehicle: saline 106 % of control | dose: 66.0 mg/kg/injection, schedule: Q01DX009 (ip), vehicle: saline 103 % of control | [2] 102 % of control and 103 % of control | [4] 101 % of control | [14] 100 % of control and 104 % of control | [5] 101 % of control | [7] 91 % of control

COc1ccc([N+](=O)[O-])cc1NC(C)=O
inactive: [15] 99 % of control | [16] 99 % of control | [17] 99 % of control

COc1cc(/C(C)=C2/SC(=S)NC2=O)cc(OC)c1OC
inactive: [15] 92 % of control | [16] 90 % of control | [17] 95 % of control

CN(CC(C)(C)C(O)c1ccccc1)C(=O)c1ccccc1 (stereo unspecified)
inactive: [4] 102 % of control | [5] 100 % of control | [7] 96 % of control

C=CCOc1cc[n+]([O-])cc1
inactive: [8] 100 % of control | [9] 105 % of control

CN(C)C1CC[N-]CC1.CN(C)C1CC[N-]CC1.[Cl][Pt+2][Cl]
inactive: dose: 25.0 mg/kg/injection, schedule: Q01DX009 (ip), vehicle: saline 110 % of control | [1] 110 % of control | [4] 92 % of control

CCCCCCCCCCCCCCCCC1(CC)NC(=O)NC1=O (stereo unspecified)
inactive: [12] 95 % of control | [13] 93 % of control | [18] 96 % of control

Cc1cccc(NC(=O)Nc2ccccc2F)n1
inactive: dose: 100.0 mg/kg/injection, schedule: Q01DX001 (ip), vehicle: Klucel (hydroxypropylcellulose) (HPC) 96 % of control | [11] 96 % of control | [19] 94 % of control and 87 % of control | [12] 99 % of control | dose: 200.0 mg/kg/injection, schedule: Q01DX001 (ip), vehicle: Klucel (hydroxypropylcellulose) (HPC) 91 % of control | dose: 200.0 mg/kg/injection, schedule: Q01DX009 (ip), vehicle: Klucel (hydroxypropylcellulose) (HPC) 96 % of control and 88 % of control | dose: 200.0 mg/kg/injection, schedule: Q04DX002 (ip), vehicle: Klucel (hydroxypropylcellulose) (HPC) 96 % of control and 91 % of control | [13] 111 % of control | dose: 400.0 mg/kg/injection, schedule: Q01DX009 (ip), vehicle: Klucel (hydroxypropylcellulose) (HPC) 105 % of control and 88 % of control | dose: 400.0 mg/kg/injection, schedule: Q04DX002 (ip), vehicle: Klucel (hydroxypropylcellulose) (HPC) 87 % of control and 91 % of control | [18] 97 % of control

CN/N=C/c1ccccc1
inactive: dose: 12.5 mg/kg/injection, schedule: Q01DX009 (ip), vehicle: saline with Tween-80 102 % of control | dose: 25.0 mg/kg/injection, schedule: Q01DX009 (ip), vehicle: saline with Tween-80 107 % of control | dose: 50.0 mg/kg/injection, schedule: Q01DX009 (ip), vehicle: saline with Tween-80 97 % of control and 112 % of control | dose: 100.0 mg/kg/injection, schedule: Q04DX002 (ip), vehicle: saline with Tween-80 95 % of control | dose: 200.0 mg/kg/injection, schedule: Q04DX002 (ip), vehicle: saline with Tween-80 92 % of control

Cc1cc2oc(=O)c3c(c2c(O)c1CN1CCN(C)CC1)CCCC3
inactive: [8] 95 % of control | [9] 92 % of control

NC(=S)N/N=C/c1cccn1Cc1cc2c(cc1[N+](=O)[O-])OCO2
inactive: dose: 25.0 mg/kg/injection, schedule: Q04DX002 (ip), vehicle: Klucel (hydroxypropylcellulose) (HPC) 100 % of control | dose: 50.0 mg/kg/injection, schedule: Q04DX002 (ip), vehicle: Klucel (hydroxypropylcellulose) (HPC) 96 % of control | [19] 104 % of control

CSc1nc(Cl)cc(-c2ccccc2)n1
inactive: dose: 200.0 mg/kg/injection, schedule: Q01DX Z (ip), vehicle: methylcellulose (MC) 106 % of control

Cn1cc(N)c(=O)[nH]c1=O
inactive: dose: 50.0 mg/kg/injection, schedule: Q01DX001 (ip), vehicle: saline 101 % of control | [8] 101 % of control | [9] 101 % of control | [10] 103 % of control

COC(O)C(Cl)(Cl)Cl (stereo unspecified)
inactive: [8] 101 % of control | [2] 97 % of control | [4] 96 % of control | [9] 97 % of control | [3] 103 % of control | [5] 100 % of control | [10] 109 % of control | [6] 103 % of control | [7] 104 % of control

C/C=C/COc1cc[n+]([O-])cc1
inactive: [4] 102 % of control | [5] 107 % of control

NC1=CCNN1
inactive: dose: 75.0 mg/kg/injection, schedule: Q01DX001 (ip), vehicle: saline 106 % of control | dose: 150.0 mg/kg/injection, schedule: Q01DX001 (ip), vehicle: saline 93 % of control | dose: 300.0 mg/kg/injection, schedule: Q01DX001 (ip), vehicle: saline 94 % of control

CCCCCCCCC(O)CCC (stereo unspecified)
inactive: [2] 102 % of control | [3] 105 % of control | [6] 102 % of control

OCCCCN=Cc1ccccc1O.OCCCCN=Cc1ccccc1O.[Cu]
inactive: dose: 9.5 mg/kg/injection, schedule: Q01DX001 (ip), vehicle: other 102 % of control | dose: 19.0 mg/kg/injection, schedule: Q01DX001 (ip), vehicle: other 108 % of control | dose: 38.0 mg/kg/injection, schedule: Q01DX001 (ip), vehicle: other 100 % of control | dose: 75.0 mg/kg/injection, schedule: Q01DX001 (ip), vehicle: other 96 % of control

CCCCN(CCCC)C(=N)c1c(C)cc(C)cc1C
inactive: dose: 2.5 mg/kg/injection, schedule: Q01DX001 (ip), vehicle: saline 101 % of control | dose: 5.0 mg/kg/injection, schedule: Q01DX001 (ip), vehicle: saline 105 % of control and 106 % of control and 108 % of control | dose: 7.0 mg/kg/injection, schedule: Q01DX001 (ip), vehicle: saline 94 % of control and 104 % of control | dose: 10.0 mg/kg/injection, schedule: Q01DX001 (ip), vehicle: saline 98 % of control and 101 % of control and 110 % of control | dose: 15.0 mg/kg/injection, schedule: Q01DX001 (ip), vehicle: saline 102 % of control and 104 % of control
